Source: patent US10233186B2, “Inhibitors of activin receptor-like kinase” (BLUEPRINT MEDICINES CORPORATION, priority 2016, dated 2019)

Experiments:
[1] = target: T1, human ALK2 R206H (Homo sapiens, UniProt Q04771, R206H); assay: Cell-based ALK2-R206H cell activity assay (Smad1-Ser463/Ser465 phosphorylation by AlphaLISA in HEK293-ALK2-R206H cells); settings: read-out: Cell Line (Cell Assay IC50)
T1 construct: expressed in transfected cells; host or cells: HEK293 (ATCC CRL1573), lentivirus transduction, blasticidin selection
T1 sequence (Q04771 21-509 R206H): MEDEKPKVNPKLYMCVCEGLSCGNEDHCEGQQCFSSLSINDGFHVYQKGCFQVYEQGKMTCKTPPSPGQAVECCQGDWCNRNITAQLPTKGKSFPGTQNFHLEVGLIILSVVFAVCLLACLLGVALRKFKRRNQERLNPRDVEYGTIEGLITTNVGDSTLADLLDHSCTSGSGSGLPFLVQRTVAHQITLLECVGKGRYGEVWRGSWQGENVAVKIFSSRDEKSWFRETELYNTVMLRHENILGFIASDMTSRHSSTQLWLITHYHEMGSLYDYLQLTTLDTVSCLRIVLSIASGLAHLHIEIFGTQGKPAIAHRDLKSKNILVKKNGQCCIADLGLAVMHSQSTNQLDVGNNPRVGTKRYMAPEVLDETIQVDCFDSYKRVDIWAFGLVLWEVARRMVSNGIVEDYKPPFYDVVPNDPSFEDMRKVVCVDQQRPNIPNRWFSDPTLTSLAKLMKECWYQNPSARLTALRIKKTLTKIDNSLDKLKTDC
Summary of the method: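 Stable HEK293 cells expressing C-terminally FLAG-tagged human ALK2 R206H (lentiviral, blasticidin-selected) were treated with compounds in 10-point, 3-fold dilutions from 10 μM or 1 μM top, in duplicate. Smad1 Ser463/Ser465 phosphorylation was read by AlphaLISA.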

[2] = target: T2, ALK2 R206H (GST-tagged mutant ALK2) (Homo sapiens, UniProt Q04771, R206H); assay: ALK binding assay (LANTHASCREEN TR-FRET competitive binding, displacement of Kinase Tracer 178); settings: ALK2 R206H, LANTHASCREEN TR-FRET competitive binding; read-out: Binding Assay (IC50)
T2 construct: purchased Carna Bioscience or ThermoFisher 09-148 or PV6232
T2 sequence (Q04771 21-509 R206H): T1 sequence (Q04771 21-509 R206H)

Row | Structure (SMILES) | IC50 [1] [nM] | IC50 [2] [nM]
1 | CCNC(=O)N1CCN(c2ccnn3cc(-c4ccc([C@H]5CCN(C(C)C)C5)cn4)cc23)CC1 [Compound 496] | < 100 | < 10
2 | CCNC(=O)N1CCN(c2ccnn3cc(-c4ccc([C@H]5CCCN5C(C)C)nc4)cc23)CC1 [Compound 497] | < 100 | < 10
3 | CCOC(=O)N1CCN(c2ccnn3cc(-c4ccc(C5(OC)CCNCC5)cc4)cc23)CC1 [Compound 498] | < 100 | < 10
4 | CC(C)NC(=O)N1CCN(c2ccnn3cc(-c4ccc(C5(F)CCNCC5)cc4)cc23)CC1 [Compound 499] | 100 to 500 | < 10
5 | N#C[C@H]1C[C@H](C(=O)N2CCN(c3ccnn4cc(-c5ccc([C@@H]6CCCNC6)cn5)cc34)CC2)C1 [Compound 500] | 100 to 500 | < 10
6 | O=C(C1CC1)N1CCN(c2ccnn3cc(-c4ccc(C5(O)CN6CCC5CC6)cc4)cc23)CC1 (stereo not shown) [Compound 501] | 100 to 500 | < 10
7 | CC(C)NC(=O)N1CCN(c2ccnn3cc(-c4ccc(C5(C#N)CCNCC5)cc4)cc23)CC1 [Compound 502] | < 100 | < 10
8 | Cc1cc(-c2cc3c(N4CCN(C(=O)C5CC5)CC4)ccnn3c2)ccc1[C@@H]1CCN(C(C)C)C1 [Compound 503] | 100 to 500 | < 10
9 | Cc1cc(-c2cc3c(N4CCN(C(=O)C5CC5)CC4)ccnn3c2)ccc1[C@H]1CCN(C(C)C)C1 [Compound 504] | 100 to 500 | < 10
10 | CC(C)N1C[C@@H](c2ccc(-c3cc4c(N5CCN(C(=O)C6CC6)CC5)ccnn4c3)cc2)C[C@H]1C [Compound 505] | < 100 | < 10
11 | CC(C)N1C[C@H](c2ccc(-c3cc4c(N5CCN(C(=O)C6CC6)CC5)ccnn4c3)cc2)C[C@@H]1C [Compound 507] | < 100 | < 10
12 | CC(C)N1C[C@@H](c2ccc(-c3cc4c(N5CCN(C(=O)C6CC6)CC5)ccnn4c3)cc2)C[C@@H]1C [Compound 508] | 100 to 500 | < 10
13 | CC(C)N1CCC[C@@]1(C)c1ccc(-c2cc3c(N4CCN(C(=O)C5CC5)CC4)ccnn3c2)cc1 [Compound 509] | < 100 | < 10
14 | CC(C)N1CCC[C@]1(C)c1ccc(-c2cc3c(N4CCN(C(=O)C5CC5)CC4)ccnn3c2)cc1 [Compound 510] | < 100 | < 10
15 | N#C[C@H]1C[C@@H]1C(=O)N1CCN(c2ccnn3cc(-c4ccc([C@]5(F)CCCNC5)cc4)cc23)CC1 [Compound 511] | < 100 | < 10
16 | N#C[C@@H]1C[C@H]1C(=O)N1CCN(c2ccnn3cc(-c4ccc([C@]5(F)CCCNC5)cc4)cc23)CC1 [Compound 512] | < 100 | < 10
17 | N#C[C@H]1C[C@@H]1C(=O)N1CCN(c2ccnn3cc(-c4ccc([C@@]5(F)CCCNC5)cc4)cc23)CC1 [Compound 513] | < 100 | < 10
18 | N#C[C@@H]1C[C@H]1C(=O)N1CCN(c2ccnn3cc(-c4ccc([C@@]5(F)CCCNC5)cc4)cc23)CC1 [Compound 514] | < 100 | < 10
19 | O=C(C1CC1)N1CCN(c2ccnn3cc(-c4ccc(C5CN6CCSC6=N5)cc4)cc23)CC1 (stereo not shown) [Compound 515] | < 100 | < 10
20 | CC(C)N1CCNC(c2ccc(-c3cc4c(N5CCN(C(=O)C6CC6)CC5)ccnn4c3)cc2)C1 (stereo not shown) [Compound 516] | < 100 | < 10
21 | CC(C)N1CCN[C@H](c2ccc(-c3cc4c(N5CCN(C(=O)C6CC6)CC5)ccnn4c3)cc2)C1 [Compound 517] | < 100 | < 10
22 | CC(C)N1CCN[C@@H](c2ccc(-c3cc4c(N5CCN(C(=O)C6CC6)CC5)ccnn4c3)cc2)C1 [Compound 518] | < 100 | < 10
23 | CC(C)NC(=O)N1CCN(c2ccnn3cc(-c4ccc(C56CCN(CC5)CC6)cc4)cc23)CC1 [Compound 519] | < 100 | < 10
24 | CC(C)N1CCOCC1c1ccc(-c2cc3c(N4CCN(C(=O)C5CC5)CC4)ccnn3c2)cc1 (stereo not shown) [Compound 520] | < 100 | < 10
25 | COC1(c2ccc(-c3cc4c(N5CCN(C(=O)C6CC6)CC5)ccnn4c3)cc2)CN(C(C)C)C1 [Compound 521] | < 100 | < 10
26 | CC(C)N1CC[C@](O)(c2ccc(-c3cc4c(N5CCN(C(=O)C6CC6)CC5)ccnn4c3)cc2)C1 [Compound 522] | < 100 | < 10
27 | CC(C)N1CC[C@@](O)(c2ccc(-c3cc4c(N5CCN(C(=O)C6CC6)CC5)ccnn4c3)cc2)C1 [Compound 523] | < 100 | < 10

Row | Structure (SMILES) | IC50 [1] [nM] | IC50 [2] [nM]
28 | CCOC1(c2ccc(-c3cc4c(N5CCN(C(=O)C6CC6)CC5)ccnn4c3)cc2)CCNCC1 [Compound 524] | < 100 | < 10
29 | CC(C)N1CC[C@@](O)(c2ccc(-c3cc4c(N5CCN(C(=O)C6CC6)CC5)ccnn4c3)nc2)C1 [Compound 526] | < 100 | < 10
30 | CC(C)N1CC[C@](O)(c2ccc(-c3cc4c(N5CCN(C(=O)C6CC6)CC5)ccnn4c3)nc2)C1 [Compound 527] | < 100 | < 10
31 | CCCNC(=O)N1CCN(c2ccnn3cc(-c4ccc([C@@H]5CCN(C(C)C)C5)cc4)cc23)CC1 [Compound 530] | < 100 | < 10
32 | CC(C)NC(=O)N1CCN(c2ccnn3cc(-c4ccc([C@@H]5CCN(C(C)C)C5)cc4)cc23)CC1 [Compound 531] | < 100 | < 10
33 | CCCNC(=O)N1CCN(c2ccnn3cc(-c4ccc([C@H]5CCN(C(C)C)C5)cc4)cc23)CC1 [Compound 532] | < 100 | < 10
34 | CC(C)NC(=O)N1CCN(c2ccnn3cc(-c4ccc([C@H]5CCN(C(C)C)C5)cc4)cc23)CC1 [Compound 533] | < 100 | < 10
35 | CCOC(=O)N1CCN(c2ccnn3cc(-c4ccc(C5CCN(C(C)C)CC5)cc4)cc23)CC1 [Compound 534] | < 100 | < 10
36 | CCNC(=O)N1CCN(c2ccnn3cc(-c4ccc(C5CN(C(C)C)CCN5)cc4)cc23)CC1 (stereo not shown) [Compound 537] | < 100 | < 10
37 | CCNC(=O)N1CCN(c2ccnn3cc(-c4ccc([C@@H]5CCCN(C(C)C)C5)cn4)cc23)CC1 [Compound 538] | < 100 | < 10
38 | CCNC(=O)N1CCN(c2ccnn3cc(-c4ccc([C@H]5CCCN(C(C)C)C5)cn4)cc23)CC1 [Compound 539] | < 100 | < 10
39 | CC(C)NC(=O)N1CCN(c2ccnn3cc(-c4ccc(C5(O)CN(C(C)C)C5)cc4)cc23)CC1 [Compound 540] | < 100 | < 10
40 | COC1(c2ccc(-c3cc4c(N5CCN(C(=O)NC(C)C)CC5)ccnn4c3)cc2)CCNCC1 [Compound 541] | < 100 | < 10
41 | CO[C@]1(c2ccc(-c3cc4c(N5CCN(C(=O)NC(C)C)CC5)ccnn4c3)cc2)CCCNC1 [Compound 542] | < 100 | < 10
42 | CO[C@@]1(c2ccc(-c3cc4c(N5CCN(C(=O)NC(C)C)CC5)ccnn4c3)cc2)CCCNC1 [Compound 543] | < 100 | < 10
43 | CCOC(=O)N1CCN(c2ccnn3cc(-c4ccc([C@@H]5CCCN(C(C)C)C5)cn4)cc23)CC1 [Compound 544] | < 100 | < 10
44 | CCOC(=O)N1CCN(c2ccnn3cc(-c4ccc([C@H]5CCCN(C(C)C)C5)cn4)cc23)CC1 [Compound 545] | < 100 | < 10
45 | CCNC(=O)N1CCN(c2ccnn3cc(-c4ccc(N5CCN(C(C)C)CC5)cn4)cc23)CC1 [Compound 546] | < 100 | < 10
46 | CCNC(=O)N1CCN(c2ccnn3cc(-c4ccc(C5CCN(C(C)C)CC5)nn4)cc23)CC1 [Compound 548] | > 500 | < 10
47 | CCOC(=O)N1CCN(c2ccnn3cc(-c4ccc([C@@]5(O)CCN(C(C)C)C5)cc4)cc23)CC1 [Compound 550] | < 100 | < 10
48 | CCOC(=O)N1CCN(c2ccnn3cc(-c4ccc([C@]5(O)CCN(C(C)C)C5)cc4)cc23)CC1 [Compound 551] | < 100 | < 10
49 | CCNC(=O)N1CCN(c2ccnn3cc(-c4cnc(N5CCN(C(C)C)CC5)cn4)cc23)CC1 [Compound 554] | 100 to 500 | < 10
50 | CC(C)NC(=O)N1CCN(c2ccnn3cc(-c4cnn([C@@H]5CCCN(C(C)C)C5)c4)cc23)CC1 [Compound 556] | < 100 | < 10
51 | CC(C)NC(=O)N1CCN(c2ccnn3cc(-c4cnn([C@H]5CCCN(C(C)C)C5)c4)cc23)CC1 [Compound 557] | < 100 | < 10
52 | O=C(OC1COC1)N1CCN(c2ccnn3cc(-c4ccc([C@]5(F)CCCNC5)cc4)cc23)CC1 [Compound 558] | < 100 | < 10
53 | O=C(OC1COC1)N1CCN(c2ccnn3cc(-c4ccc([C@@]5(F)CCCNC5)cc4)cc23)CC1 [Compound 559] | < 100 | < 10
